Test results published in EP0863136B1, “Derivatives of azetidine and pyrrolidine” (Akzo Nobel N.V., priority 1997, dated 1998).

What was measured:
5HT2C receptors = biological target: T1, 5HT2C receptors (Rattus norvegicus, UniProt P08909); experiment: Penile erection test; format: in vivo; settings: rats
T1 construct: from tissue; host or cells: whole animal (rat), in vivo
T1 sequence (P08909 33-460): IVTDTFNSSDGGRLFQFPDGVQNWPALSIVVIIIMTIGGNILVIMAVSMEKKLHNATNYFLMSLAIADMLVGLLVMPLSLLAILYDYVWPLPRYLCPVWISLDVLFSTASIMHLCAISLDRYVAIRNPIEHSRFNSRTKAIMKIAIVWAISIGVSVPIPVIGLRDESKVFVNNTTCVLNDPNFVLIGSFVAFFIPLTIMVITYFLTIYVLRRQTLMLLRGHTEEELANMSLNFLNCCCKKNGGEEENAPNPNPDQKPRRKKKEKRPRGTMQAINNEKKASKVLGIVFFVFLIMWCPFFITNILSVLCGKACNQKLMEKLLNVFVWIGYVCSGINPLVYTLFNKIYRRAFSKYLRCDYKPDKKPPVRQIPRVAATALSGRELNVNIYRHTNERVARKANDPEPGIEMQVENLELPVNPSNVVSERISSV
From the text: This test, carried out according to the protocol of Berendsen et al ["In volvement of 5-HT1C receptors in drug-induced penile erections in rats" - Psychopharmacology 101: 57-61(1990)] enables the potential in vivo activity at 5HT2C receptors to be assessed.

DRL-72 test = format: in vivo; settings: rats, operant performance
From the text: This test, carried out according to the protocol of Andrews et al ["Effects of imipramine and mirtazapine on operant performance in rats" - Drug Development Research 32: 58-66 (1994)], gives an indication of potential antidepressant-like activity.

human 5-HT2C = biological target: T2, human 5-HT2C (Homo sapiens, UniProt P28335); experiment: Binding test, displacement of [3H]-mesulergine, cloned human receptors expressed in 3T3 cells; settings: cloned human receptor in 3T3 cells; [3H]-mesulergine displacement; read-out: Binding pKi 5HT2C (converted)
T2 construct: expressed in transfected cells; host or cells: 3T3 cells
T2 sequence (P28335 33-458): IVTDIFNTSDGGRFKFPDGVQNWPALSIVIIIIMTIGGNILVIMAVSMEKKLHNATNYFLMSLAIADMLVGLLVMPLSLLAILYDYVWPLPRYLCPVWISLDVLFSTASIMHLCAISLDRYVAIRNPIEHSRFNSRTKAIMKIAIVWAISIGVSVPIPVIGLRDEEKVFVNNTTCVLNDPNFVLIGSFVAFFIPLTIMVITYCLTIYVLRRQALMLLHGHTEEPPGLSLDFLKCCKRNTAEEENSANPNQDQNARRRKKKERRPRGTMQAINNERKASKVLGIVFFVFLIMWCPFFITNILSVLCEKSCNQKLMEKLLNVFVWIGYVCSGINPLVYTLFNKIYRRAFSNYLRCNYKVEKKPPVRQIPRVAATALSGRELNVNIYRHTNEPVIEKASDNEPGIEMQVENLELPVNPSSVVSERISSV
Experimental: (§1) The tests are carried out using cloned human receptors expressed in 3T3 cells according to the protocols described in Stam et al "Genomic organization, coding sequence and functional expression of human 5-HT2 and 5-HT1A receptor genes" - European Journal of Pharmacology - Molecular Pharmacology Section 227: 153-162 (1993) and Stam et al "Genomic organisation and functional expression of the gene encoding the human serotonin 5-HT2C receptor" - European Journal of Pharmacology - Molecular Pharmacology Section 269: 339-348 (1994).

human 5-HT2A receptors = biological target: T3, human 5-HT2A receptors (Homo sapiens, UniProt P28223); experiment: Binding test, displacement of [3H]-ketanserin, cloned human receptors expressed in 3T3 cells; settings: cloned human receptor in 3T3 cells; [3H]-ketanserin displacement; read-out: Binding pKi 5HT2A (converted)
T3 construct: expressed in transfected cells; host or cells: 3T3 cells
T3 sequence (P28223 whole entry): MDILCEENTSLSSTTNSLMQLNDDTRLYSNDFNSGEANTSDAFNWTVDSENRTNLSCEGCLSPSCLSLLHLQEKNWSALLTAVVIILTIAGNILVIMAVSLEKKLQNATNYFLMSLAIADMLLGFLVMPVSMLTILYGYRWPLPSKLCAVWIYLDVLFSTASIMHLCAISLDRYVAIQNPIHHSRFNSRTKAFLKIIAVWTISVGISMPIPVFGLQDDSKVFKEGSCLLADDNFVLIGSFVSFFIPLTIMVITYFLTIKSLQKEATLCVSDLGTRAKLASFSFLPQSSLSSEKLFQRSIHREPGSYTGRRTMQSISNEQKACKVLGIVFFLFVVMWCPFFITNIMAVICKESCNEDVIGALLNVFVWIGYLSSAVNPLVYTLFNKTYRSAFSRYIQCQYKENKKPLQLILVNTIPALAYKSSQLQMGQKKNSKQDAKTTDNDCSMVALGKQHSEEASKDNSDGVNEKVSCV
Experimental: as §1

| Structure (SMILES) | Erection of the penis (MED, mg.kg-1) (5HT2C receptors) | Increase in pellets earned in DRL-72 (MED, mg.kg-1) (DRL-72 test) | Ki (human 5-HT2C) | Ki (human 5-HT2A receptors) |
| --- | --- | --- | --- | --- |
| COc1ccc2c(c1O[C@H]1CCNC1)CCC2.Cl [Compound 9a, (S)-(+)-3-[(2,3-Dihydro-5-methoxy-1H-inden-4-yl)oxy]-pyrrolidine hydrochloride] | 0.46 mg/kg | 3 mg/kg | 10 nM |  |
| COc1ccc2c(c1OC1CCNC1)CCC2.Cl (racemic) [Compound 10b, (rac)-3-[(2,3-Dihydro-5-methoxy-1H-inden-4-yl)oxy] pyrrolidine hydrochloride] | 1 mg/kg | 10 mg/kg | 25.1 nM |  |
| COc1ccc2c(c1OC1CNC1)CCC2.Cl [Compound 5d, 3-[(2,3-Dihydro-5-methoxy-1H-inden-4-yl)oxy]-azetidine hydrochloride] | 1 mg/kg | 10 mg/kg | 31.6 nM | 398 nM |
